Columns and labels:
Rice [1] = assay: Test C pre-emergence on Fallsington silt loam soil; format: in vivo; details: 0.03 kg/ha, 28 days
Text: (§1) The high herbicidal activity of two of the compounds from within the scope of the invention is evident from the results obtained in this test. The experiment concerned pre-emergence applications on soil. The containers used were 25 cm diameter plastic pots filled with Fallsington silt loam. One set of pots was planted to weeds, the seeds of which were uniformly mixed with the top 1.2 cm layer of soil. The species selected were: johnsongrass (Sorghum halepense), barnyardgrass (Echinochloa crusgalli), crabgrass (Digitaria sanguinalis), giant foxtail (Setaria faberii), velvetleaf (Abutilon theophrasti), jimsonweed (Datura stramonium), mustard (Brassica arvensis), and pigweed (Amaranthus retroflexus). Another set of pots were planted to the following crops with from one to four species per pot: corn (planting depth 3.7 cm), cotton, soybeans, sunflower, Clinton oats, wheat, Black Valentine beans, rice, sorghum, peas, flax, and peanuts (all at 2.5 cm depth), cucumbers, cabbage, alfalfa, safflower, sugarbeets, tomato, spinach, barley, and Kentucky bluegrass (all at 1.2 cm depth). Immediately after planting, the test chemical was applied to the soil surfaces dissolved in a non-phytotoxic solvent. One pot from the weed phase and one of each of the crop species were left untreated for the purpose of comparison. The treated and untreated pots were promptly watered with approximatley 4 mm of simultated rainfall and then held in a greenhouse for several weeks. Visual weed and crop response ratings were made 28 days after treatment utilizing the rating system as described above for Test A. The data are given in Table C.

Sunflower = assay: Test C pre-emergence on Fallsington silt loam soil; format: in vivo; details: 0.03 kg/ha, 28 days
Text: as §1

Flax = assay: Test C pre-emergence on Fallsington silt loam soil; format: in vivo; details: 0.03 kg/ha, 28 days
Text: as §1

Barley = assay: Test C pre-emergence on Fallsington silt loam soil; format: in vivo; details: 0.03 kg/ha, 28 days
Text: as §1

Tomato = assay: Test C pre-emergence on Fallsington silt loam soil; format: in vivo; details: 0.03 kg/ha, 28 days
Text: as §1

Wheat [2] = assay: Test C pre-emergence on Fallsington silt loam soil; format: in vivo; details: 0.03 kg/ha, 28 days
Text: as §1

Oats = assay: Test C pre-emergence on Fallsington silt loam soil; format: in vivo, Clinton oats; details: 0.03 kg/ha, 28 days
Text: as §1, with “The treated and untreated pots were promptly watered with approximatley 4 mm of simultated rainfall and then held in a greenhouse for several weeks. Visual weed and crop response ratings were made 28 days after treatment utilizing the rating system as described above for Test A. The data are given in Table C.” left out

Grasses = assay: Test C pre-emergence on Fallsington silt loam soil; format: in vivo, johnsongrass, barnyardgrass, crabgrass, giant foxtail; details: 28 days
Text: as §1

Bean = assay: Test C pre-emergence on Fallsington silt loam soil; format: in vivo, Black Valentine beans; details: 0.03 kg/ha, 28 days
Text: as §1, with “The treated and untreated pots were promptly watered with approximatley 4 mm of simultated rainfall and then held in a greenhouse for several weeks. Visual weed and crop response ratings were made 28 days after treatment utilizing the rating system as described above for Test A. The data are given in Table C.” left out

Cucumber = assay: Test C pre-emergence on Fallsington silt loam soil; format: in vivo, cucumbers; details: 0.03 kg/ha, 28 days
Text: as §1, with “The treated and untreated pots were promptly watered with approximatley 4 mm of simultated rainfall and then held in a greenhouse for several weeks. Visual weed and crop response ratings were made 28 days after treatment utilizing the rating system as described above for Test A. The data are given in Table C.” left out

Annual Bluegrass = assay: Test D pre-/post-emergence weed control in cereals; format: in vivo, Poa annual; details: 20 days
Text: (§2) Two ten-inch in diameter plastic pans lined with polyethylene liners were filled with prepared Fallsington slit loam soil. One pan was planted with seeds of wheat (Triticum aestivum), barley (Hordeum vulgarel, wild oats (Avena fatua), downy brome (Bromus tectorum), cheatgrass (Bromus secalinus), blackgrass (Alopecurus myosuroides), annual bluegrass (Poa annual, green foxtail (Setaria viridis), quack grass (Agropyron repens), Italian ryegrass (Lolium multiflorum) and ripgut brome (Bromus rigidus). The other pan was planted with seeds of Russian thistle (Salsola kali), tansy mustard (Descuraina pinnata), smartweed (Polygonum pensylvanicum), tumble mustard (Sisymbrium altissium) kochia (Kochia scoparia), shepherd's purse (Capsella bursa-pastoris), Matricaria inodora, black nightshade (Solanum nigrum), yellow rocket (Barbarea vulgaris), wild mustard (Brassica kaber) and wild buckwheat (Polygonum convolvulus). The above two pans were treated pre-emergence. At the same time two pans in which the above plant species were growing were treated post-emergence. Plant height at the time of treatment ranged from 1-15 cm depending on plant species.
(§3) The compounds applied were diluted with a non-phytotoxic solvent and sprayed over-the-top of the pans. An untreated control and a solvent alone control were included for comparison. All treatments were maintained in the greenhouse for 20 days at which time the treatments were compared to the controls and the effects visually rated. The recorded data, presented in Table D, indicate that certain compounds from within the scope of the invention have utility for pre- and/or post-emergence weed control in cereal crops such as wheat and barley.

Yellow Rocket = assay: Test D pre-/post-emergence weed control in cereals; format: in vivo, Barbarea vulgaris; details: 0.06 kg/ha, 20 days
Text: as §2, with “Plant height at the time of treatment ranged from 1-15 cm depending on plant species.” left out
The compounds applied were diluted with a non-phytotoxic solvent and sprayed over-the-top of the pans. […] The recorded data, presented in Table D, indicate that certain compounds from within the scope of the invention have utility for pre- and/or post-emergence weed control in cereal crops such as wheat and barley.

Tumble Mustard = assay: Test D pre-/post-emergence weed control in cereals; format: in vivo, Sisymbrium altissium; details: 20 days
Text: as §2, §3

Cheatgrass = assay: Test D pre-/post-emergence weed control in cereals; format: in vivo, Bromus secalinus; details: 20 days
Text: as §2, §3

Wheat [3] = assay: Test D pre-/post-emergence weed control in cereals; format: in vivo, Triticum aestivum; details: 20 days
Text: as §2, §3

Wild Oats = assay: Test D pre-/post-emergence weed control in cereals; format: in vivo, Avena fatua; details: 20 days
Text: as §2, §3

Quackgrass = assay: Test D pre-/post-emergence weed control in cereals; format: in vivo, Agropyron repens; details: 20 days
Text: as §2, §3

Rice [4] = assay: Test F over-the-top soil/foliage treatment; format: in vivo; details: soil/foliage spray, ~14 days
Method in brief: (§4)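 Visual injury ratings, made about fourteen days after spraying by comparison with untreated plants, reflect an over-the-top application of compound in non-phytotoxic solvent. Spraying took place roughly 14 days after seeding into Woodstown sandy loam under greenhouse conditions.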

Soybeans = assay: Test F over-the-top soil/foliage treatment; format: in vivo; details: for Soybeans response rating: soil/foliage spray, ~14 days
Method in brief: as §4

SMILES: COc1cc(OC)nc(NC(=O)NS(=O)(=O)c2ccccc2OS(C)(=O)=O)n1 [Compound 1, N-[(4,6-Dimethoxypyrimidin-2-yl)aminocarbonyl]-2-hydroxybenzenesulfonamide, methanesulfonate]
- Rice response rating (Rice [1]): 6G
- Sunflower response rating (Sunflower): 5G
- Flax response rating (Flax): 6G
- Barley response rating (Barley): 3G
- Tomato response rating (Tomato): 4G
- Wheat response rating (Wheat [2]): 2G
- Oats response rating (Oats): 4G
- Grasses response rating (Grasses; 0.0035 kg/ha): 0
- Grasses response rating (Grasses; 0.0075 kg/ha): 0
- Grasses response rating (Grasses; 0.015 kg/ha): 2G
- Bean response rating (Bean): 0
- Cucumber response rating (Cucumber): 5G

SMILES: CCCS(=O)(=O)Oc1ccccc1S(=O)(=O)NC(=O)Nc1nc(OC)cc(OC)n1 [Compound 36, N-[(4,6-dimethoxypropimidin-2-yl)aminocarbonyl]-2-hydroxybenzenesulfonamide, 1-propanesulfonate]
- Annual Bluegrass response rating (Annual Bluegrass; Post-Emergence, 0.015 kg/ha): 2G
- Annual Bluegrass response rating (Annual Bluegrass; Post-Emergence, 0.06 kg/ha): 3G
- Annual Bluegrass response rating (Annual Bluegrass; Pre-Emergence, 0.015 kg/ha): 6G
- Yellow Rocket response rating (Yellow Rocket; Post-Emergence): 10C
- Yellow Rocket response rating (Yellow Rocket; Pre-Emergence): 10C
- Tumble Mustard response rating (Tumble Mustard; Post-Emergence, 0.015 kg/ha): 10C
- Tumble Mustard response rating (Tumble Mustard; Post-Emergence, 0.06 kg/ha): 10C
- Tumble Mustard response rating (Tumble Mustard; Pre-Emergence, 0.015 kg/ha): 5G
- Cheatgrass response rating (Cheatgrass; Post-Emergence, 0.015 kg/ha): 1G
- Cheatgrass response rating (Cheatgrass; Pre-Emergence, 0.015 kg/ha): 7G
- Cheatgrass response rating (Cheatgrass; Pre-Emergence, 0.06 kg/ha): 10C
- Wheat response rating (Wheat [3]; Post-Emergence, 0.015 kg/ha): 0
- Wheat response rating (Wheat [3]; Post-Emergence, 0.06 kg/ha): 0
- Wheat response rating (Wheat [3]; Pre-Emergence, 0.015 kg/ha): 0
- Wheat response rating (Wheat [3]; Pre-Emergence, 0.06 kg/ha): 0
- Wild Oats response rating (Wild Oats; Post-Emergence, 0.015 kg/ha): 0
- Wild Oats response rating (Wild Oats; Post-Emergence, 0.06 kg/ha): 0
- Wild Oats response rating (Wild Oats; Pre-Emergence, 0.015 kg/ha): 0
- Wild Oats response rating (Wild Oats; Pre-Emergence, 0.06 kg/ha): 0
- Quackgrass response rating (Quackgrass; Post-Emergence, 0.015 kg/ha): 0
- Quackgrass response rating (Quackgrass; Post-Emergence, 0.06 kg/ha): 0
- Quackgrass response rating (Quackgrass; Pre-Emergence, 0.015 kg/ha): 0
- Quackgrass response rating (Quackgrass; Pre-Emergence, 0.06 kg/ha): 2G

SMILES: CCCS(=O)(=O)Oc1ccccc1S(=O)(=O)NC(=O)Nc1nc(C)nc(OC)n1 [Compound 39, 2-hydroxy-N-[(4-methoxy-6-methyl-1,3,5-triazin-2-yl)aminocarbonyl]benzenesulfonamide, 1-propanesulfonate]
- Rice response rating (Rice [4]; 0.007 kg/ha): 2G
- Rice response rating (Rice [4]; 0.03 kg/ha): 4G
- Rice response rating (Rice [4]; 0.06 kg/ha): 0
- Rice response rating (Rice [4]; 0.12 kg/ha): 0
- post-emergence control of weeds in soybeans (Soybeans; conclusion from Test F): has utility for the post-emergence control of weeds in soybeans
- Soybeans response rating (Soybeans; 0.007 kg/ha): 0
- Soybeans response rating (Soybeans; 0.03 kg/ha): 4G

From patent EP0044212B1, “Herbicidal o-alkylsulfonyloxy- and o-alkylsulfonylamino-benzenesulfonamides” (E.I. DU PONT DE NEMOURS AND COMPANY, priority 1980, dated 1982)
